Target: human-KAT6A (MYST domain 507-778 aa) (Homo sapiens (Human), UniProt Q92794)
Test: KAT6A biochemical assay (TR-FRET)
Conditions: H4 peptide 200 nM, acetyl-CoA 600 nM
Description: TR-FRET based method was used for assaying compounds of the present invention for KAT6A enzyme inhibitory activity. TR-FRET is homogeneous proximity assay where Europium-labelled anti-acetyl lysine antibody binds to the acetylated substrate labelled with biotin which in turn binds to streptavidin labelled APC fluorescence acceptor. Europium can transfer energy to APC in the complex and the interaction of two dye-labelled binding partners is detected by the energy transfer between a donor and an acceptor dye, and the subsequent light emission by the acceptor dye. KAT6A transfer an acetyl group from acetyl CoA to lysine amino acids of histones/target proteins. Typically, 5 μL of human-KAT6A (MYST domain 507-778 aa) in assay buffer (100 mM Tris HCl (pH 7.8), 15 mM NaCl, 1 mM EDTA, 0.01% Tween-20, 0.02% BSA, 1 mM DTT) is added to 384-well plate containing 5 μL of selected test compound in final 1% DMSO, serially diluted in 1:3 in an 8-10-point titration. The selected compound of the present invention and enzyme are incubated for 30 min at room temperature. Next, 5 μL of substrate mix containing histone H4 peptide and acetyl-CoA in assay buffer is added to the plate. The final concentrations of H4 peptide and acetyl-CoA are 200 nM and 600 nM respectively. Following 30 min reaction at room temperature, 5 μL of detection mix containing Europium labelled anti-acetyl antibody and streptavidin-APC is added to the reaction wells. The plate is further incubated for 45 min at room temperature and is read in TR-FRET mode (Ex:340 nm; Em: 615 nm and 665 nm) on a plate reader. The percent inhibition was calculated from the ratio of the fluorescence (FL) intensities [(F665/F615)×10,000) using the formula […]. IC50 values of the compounds were determined by fitting the dose-response data to sigmoidal curve fitting equation using Graph pad prism software V8.

Chain of human-KAT6A (MYST domain 507-778 aa) (Q92794 507-778): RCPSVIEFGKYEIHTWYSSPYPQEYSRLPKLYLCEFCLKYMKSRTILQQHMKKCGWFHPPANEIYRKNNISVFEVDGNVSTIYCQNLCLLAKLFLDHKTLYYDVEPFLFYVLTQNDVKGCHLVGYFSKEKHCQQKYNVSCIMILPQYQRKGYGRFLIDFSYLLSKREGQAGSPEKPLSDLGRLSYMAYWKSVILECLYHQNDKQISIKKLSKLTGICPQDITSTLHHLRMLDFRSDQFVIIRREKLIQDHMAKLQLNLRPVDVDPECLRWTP

Structure (SMILES)	IC50 [nM]
COc1cccc(OC)c1S(=O)(=O)Nc1noc2cc(Cn3cccn3)c3c(c12)OC(C)C3 (single isomer, unassigned) [Compound 22, N-(4-((1H-pyrazol-1-yl)methyl)-2-methyl-2,3-dihydrobenzofuro[7,6-d]isoxazol-8-yl)-2,6-dimethoxybenzenesulfonamide]	21
COCC1Cc2c(Cn3cccn3)cc3onc(NS(=O)(=O)c4c(OC)cccc4OC)c3c2O1 (stereo not drawn) [Compound 60, N-(4-((1H-pyrazol-1-yl)methyl)-2-(methoxymethyl)-2,3-dihydrobenzofuro[7,6-d]isoxazol-8-yl)-2,6-dimethoxybenzenesulfonamide]	99
COCC1Cc2c(Cn3cccn3)cc3onc(NS(=O)(=O)c4c(OC)cccc4OC)c3c2O1 (single isomer, unassigned) [Compound 62, N-(4-((1H-pyrazol-1-yl)methyl)-2-(methoxymethyl)-2,3-dihydrobenzofuro[7,6-d]isoxazol-8-yl)-2,6-dimethoxybenzenesulfonamide]	164
COc1cc(C2CC2)ccc1S(=O)(=O)Nc1noc2cc(Cn3cccn3)c3c(c12)OCC3 [Compound 65, N-(4-((1H-pyrazol-1-yl)methyl)-2,3-dihydrobenzofuro[7,6-d]isoxazol-8-yl)-4-cyclopropyl-2-methoxybenzenesulfonamide]	10
COc1cccc(OC)c1S(=O)(=O)Nc1noc2cc(Cn3cccn3)c3c(c12)OC(C)C3 (stereo not drawn) [Compound 21, N-(4-((1H-pyrazol-1-yl)methyl)-2-methyl-2,3-dihydrobenzofuro[7,6-d]isoxazol-8-yl)-2,6-dimethoxybenzenesulfonamide]	19
COc1cccc(OC)c1S(=O)(=O)Nc1noc2cc(-c3scnc3C)c3c(c12)OCC3 [Compound 11]	88
COc1cccc(OC)c1S(=O)(=O)Nc1noc2cc(Cn3ccnn3)c3c(c12)OCC3 [Compound 41]	25
COc1cccc(OC)c1S(=O)(=O)Nc1noc2cc(-c3cccs3)c3c(c12)OCC3 [Compound 6]	46
COc1cc(-n2cccn2)ccc1S(=O)(=O)Nc1noc2cc(Cn3cccn3)c3c(c12)OCC3 [Compound 39]	22
COc1ccc(C(=O)O)cc1S(=O)(=O)Nc1noc2cc(Cn3cccn3)c3c(c12)OCC3 [Compound 63, 3—(N-(4-((1H-pyrazol-1-yl)methyl)-2,3-dihydrobenzofuro[7,6-d]isoxazol-8-yl)sulfamoyl)-4-methoxybenzoic Acid]	23
CCc1ccc(OC)c(S(=O)(=O)Nc2noc3cc(Cn4cccn4)c4c(c23)OCC4)c1 [Compound 46]	20
COc1cccc(OC)c1S(=O)(=O)Nc1noc2cc(-c3cccnc3)c3c(c12)OCC3 [Compound 54]	158
COc1cccc(OC)c1S(=O)(=O)Nc1noc2cc(-c3ccccc3)c3c(c12)OCC3 [Compound 1, 2,6-dimethoxy-N-(4-phenyl-2,3-dihydrobenzofuro[7,6-d]isoxazol-8-yl)benzenesulfonamide]	57
O=S(=O)(Nc1noc2cc(Cn3cccn3)c3c(c12)OCC3)c1c(Cl)cccc1Cl [Compound 45]	40
O=S(=O)(Nc1noc2cc(Cn3cccn3)c3c(c12)OCC3)c1ccccc1OCc1ccccn1 [Compound 38]	32
COc1cccc(OC)c1S(=O)(=O)Nc1noc2cc(-c3ccccc3)c3c(c12)OC(C)(C)C3 [Compound 57]	135
COc1ccccc1S(=O)(=O)Nc1noc2cc(Cn3cccn3)c3c(c12)OCC3 [Compound 55]	34
COc1cccc(OC)c1S(=O)(=O)Nc1noc2cc(-c3ccc(C)s3)c3c(c12)OCC3 [Compound 12]	291
COc1cccc(OC)c1S(=O)(=O)Nc1noc2cc(Cn3cc(C#N)cn3)c3c(c12)OCC3 [Compound 33]	127
COCC1Cc2c(Cn3cccn3)cc3onc(NS(=O)(=O)c4c(OC)cccc4OC)c3c2O1 (single isomer, unassigned) [Compound 61, N-(4-((1H-pyrazol-1-yl)methyl)-2-(methoxymethyl)-2,3-dihydrobenzofuro[7,6-d]isoxazol-8-yl)-2,6-dimethoxybenzenesulfonamide]	280
COc1cccc(OC)c1S(=O)(=O)Nc1noc2cc(-c3cc(C)cs3)c3c(c12)OCC3 [Compound 13]	71
O=S(=O)(Nc1noc2cc(Cn3cccn3)c3c(c12)OCC3)c1ccccc1-c1ccccc1 [Compound 53]	29
CCOc1ccccc1S(=O)(=O)Nc1noc2cc(Cn3cccn3)c3c(c12)OCC3 [Compound 52]	32
COc1cccc(OC)c1S(=O)(=O)Nc1noc2cc(Cn3cc(F)cn3)c3c(c12)OCC3 [Compound 34]	26
COc1cccc(OC)c1S(=O)(=O)Nc1noc2cc(C(C)n3cccn3)c3c(c12)OCC3 (stereo not drawn) [Compound 20]	51
COc1ccc(-n2cccn2)cc1S(=O)(=O)Nc1noc2cc(Cn3cccn3)c3c(c12)OCC3 [Compound 40]	27

Structure (SMILES)	IC50 [nM]
COc1cccc(OC)c1S(=O)(=O)Nc1noc2cc(Cn3cccn3)c3c(c12)OCC3 [Compound 2, N-(4-((1H-pyrazol-1-yl)methyl)-2,3-dihydrobenzofuro[7,6-d]isoxazol-8-yl)-2,6-dimethoxybenzenesulfonamide]	20
COc1cccc(OC)c1S(=O)(=O)Nc1noc2cc(-c3ccccc3)c3c(c12)OC(C)C3 (stereo not drawn) [Compound 18]	37
COc1cccc(OC)c1S(=O)(=O)Nc1noc2cc(-c3ccccc3)c3c(c12)OCCC3 [Compound 15]	45
COc1cccc(OC)c1S(=O)(=O)Nc1noc2cc(-c3ccccc3)c3c(c12)OCCC3C (stereo not drawn) [Compound 17]	74
COc1cccc(OC)c1S(=O)(=O)Nc1noc2cc(Cn3cccn3)c3cc(C)oc3c12 [Compound 58]	21
COc1csc(-c2cc3onc(NS(=O)(=O)c4c(OC)cccc4OC)c3c3c2CCO3)c1 [Compound 7]	150
O=S(=O)(Nc1noc2cc(Cn3cccn3)c3c(c12)OCC3)c1ccccc1F [Compound 51]	35
COc1cccc(OC)c1S(=O)(=O)Nc1noc2cc(Cn3cccn3)c3c(c12)OC(C)C3 (single isomer, unassigned) [Compound 23, N-(4-((1H-pyrazol-1-yl)methyl)-2-methyl-2,3-dihydrobenzofuro[7,6-d]isoxazol-8-yl)-2,6-dimethoxybenzenesulfonamide]	23
COc1cccc(OC)c1S(=O)(=O)Nc1noc2cc(-c3ccsc3)c3c(c12)OCC3 [Compound 3]	43
O=S(=O)(Nc1noc2cc(Cn3cccn3)c3c(c12)OCC3)c1ccccc1OC(F)(F)F [Compound 50]	70
COc1cc2c(cc1S(=O)(=O)Nc1noc3cc(Cn4cccn4)c4c(c13)OCC4)CCC2 [Compound 44]	32.7
COc1cccc(OC)c1S(=O)(=O)Nc1noc2cc(-c3ccoc3)c3c(c12)OCC3 [Compound 4]	29
COc1cccc(OC)c1S(=O)(=O)Nc1noc2cc(-c3ccc(C)o3)c3c(c12)OCC3 [Compound 9]	36
COc1cc(C(F)(F)F)ccc1S(=O)(=O)Nc1noc2cc(Cn3cccn3)c3c(c12)OCC3 [Compound 31]	18
O=S(=O)(Nc1noc2cc(Cn3cccn3)c3c(c12)OCC3)c1c(F)cccc1F [Compound 48]	30
COCc1cc2onc(NS(=O)(=O)c3c(OC)cccc3OC)c2c2c1CCO2 [Compound 19]	31
COc1cccc(OC)c1S(=O)(=O)Nc1noc2cc(Cn3cc(C(F)(F)F)cn3)c3c(c12)OCC3 [Compound 36]	219
COc1cc(C(C)(C)C)ccc1S(=O)(=O)Nc1noc2cc(Cn3cccn3)c3c(c12)OCC3 [Compound 47]	26
COC(=O)c1ccc(OC)c(S(=O)(=O)Nc2noc3cc(Cn4cccn4)c4c(c23)OCC4)c1 [Compound 42]	26.6
COc1ccc(C(C)(C)C)cc1S(=O)(=O)Nc1noc2cc(Cn3cccn3)c3c(c12)OCC3 [Compound 49]	76
COc1cccc(OC)c1S(=O)(=O)Nc1noc2cc(-c3ccco3)c3c(c12)OCC3 [Compound 8]	43
COc1cccc(OC)c1S(=O)(=O)Nc1noc2cc(-c3ccccc3)c3cc(C)oc3c12 [Compound 59]	35
COc1cc2c(cc1S(=O)(=O)Nc1noc3cc(Cn4cccn4)c4c(c13)OCC4)CCCC2 [Compound 43]	12
COc1cccc(OC)c1S(=O)(=O)Nc1noc2cc(Cn3ccc(C(F)(F)F)n3)c3c(c12)OCC3 [Compound 37]	494
COc1cccc(OC)c1S(=O)(=O)Nc1noc2cc(Cn3cc(Cl)cn3)c3c(c12)OCC3 [Compound 35]	27

Reference: patent US20250059204A1, “FUSED BENZOISOXAZOLYL COMPOUNDS AS KAT6A INHIBITORS” (Aurigene Oncology Limited, priority 2021, published 2025)
